Values of other authors, collected in EP1398318A1, “Process for conducting chemical reactions in a liquid phase in the presence of a catalyst and a 1,3-substituted imidazolium salt” (BASF AKTIENGESELLSCHAFT, priority 2002, dated 2004).

Biological target: menschlichen Myeloperoxidase (Homo sapiens, UniProt P05164)
Conditions: competitive with hydrogen peroxide at the active centre

Sequence of menschlichen Myeloperoxidase (P05164 279-745 limits assumed): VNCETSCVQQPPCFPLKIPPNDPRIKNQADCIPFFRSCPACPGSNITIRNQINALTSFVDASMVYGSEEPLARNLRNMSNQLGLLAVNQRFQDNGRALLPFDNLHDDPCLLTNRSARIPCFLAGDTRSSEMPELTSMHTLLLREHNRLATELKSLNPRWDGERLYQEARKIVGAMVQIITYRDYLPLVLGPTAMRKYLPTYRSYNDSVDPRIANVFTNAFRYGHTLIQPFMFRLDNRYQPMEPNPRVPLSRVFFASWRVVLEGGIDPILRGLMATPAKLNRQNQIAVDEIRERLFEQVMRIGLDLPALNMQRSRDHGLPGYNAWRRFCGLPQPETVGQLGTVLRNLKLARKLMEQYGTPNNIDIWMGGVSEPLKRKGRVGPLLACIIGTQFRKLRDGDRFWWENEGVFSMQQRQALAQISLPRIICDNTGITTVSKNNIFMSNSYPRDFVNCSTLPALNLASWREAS
Sequence of menschlichen Myeloperoxidase (P05164 165-278 limits assumed): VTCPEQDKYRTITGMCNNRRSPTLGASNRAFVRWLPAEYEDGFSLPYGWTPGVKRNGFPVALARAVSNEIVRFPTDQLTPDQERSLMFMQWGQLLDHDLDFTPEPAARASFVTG

Structure (SMILES): Cl [Chlorid]
- bindet kompetitiv zu Wasserstoffperoxid am aktiven Zentrum des Enzyms: inhibierend
